# Structures can show the parent of a compound that is named as a salt.
row,Compound,melting point [°C]
1,"CN1CCC(NC(c2cccc(OCCOc3ccccc3)c2)c2nc3ccccc3[nH]2)CC1 (centres unmarked) (as salt: oxalate) [Example 106, {(1H-benzimidazol-2-yl)[3-(2-phenoxyethoxy)phenyl]methyl}(1-methylpiperidin-4-yl)amine]",140
2,"CN1CCC(OC(c2cccc(OCc3cccnc3)c2)c2nc3ccccc3s2)CC1 (centres unmarked) (as salt: oxalate) [Example 284, 2-{(1-methylpiperidin-4-yloxy)[3-(pyridin-3-ylmethoxy)phenyl]methyl}benzothiazole]",102
3,"Cc1ccccc1COc1cccc(C(NC2CCN(C)CC2)c2nc3ccccc3[nH]2)c1 (centres unmarked) (as salt: oxalate) [Example 129, {(1H-benzimidazol-2-yl)[3-(2-methylbenzyloxy)phenyl]methyl}(1-methylpiperidin-4-yl)amine]",121
4,"CN1CCC(OC(c2cccc(OCC3CCCNC3)c2)c2nc3ccccc3s2)CC1 (centres unmarked) (as salt: oxalate) [Example 378, 2-{(1-methylpiperidin-4-yloxy)[3-(piperidin-3-ylmethoxy)phenyl]methyl}benzothiazole]",55
5,"CN1CCC(OC(c2ccc3c(c2)OCCO3)c2nc3ccccc3s2)CC1 (centres unmarked) (as salt: hydrochloride) [Example 10, 2-[(2,3-dihydrobenzo[1,4]dioxin-6-yl)(1-methylpiperidin-4-yloxy)methyl]benzothiazole]",71
6,"CN1CCC(OC(c2cccc(OC3CCNCC3)c2)c2nc3ccccc3s2)CC1 (centres unmarked) (as salt: oxalate) [Example 415, 2-{(1-methylpiperidin-4-yloxy)[3-(piperidin-4-yloxy)phenyl]methyl}benzothiazole]",76
7,CN1CCC(OC(c2cccc(SCCCCN)c2)c2nc3cc(F)c(F)c(F)c3[nH]2)CC1 (centres unmarked) (as salt: oxalate) [Example 493],110
8,"CSCCOc1cccc(C(OC2CCN(C)CC2)c2nc3ccccc3s2)c1 (centres unmarked) (as salt: oxalate) [Example 250, 2-{(1-methylpiperidin-4-yloxy)[3-(2-methylsulfanyl-ethoxy)phenyl]methyl}benzothiazole]",89
9,"CN1CCC(NC(c2cccc(C#CCCCCN)c2)c2nc3ccccc3s2)CC1 (centres unmarked) (as salt: oxalate) [Example 420, {[3-(6-aminohex-1-ynyl)phenyl]benzothiazol-2-yl-methyl}(1-methylpiperidin-4-yl)amine]",80
10,"CN1CCC(OC(c2cccc(CCCCCCN)c2)c2nc3ccccc3s2)CC1 (centres unmarked) (as salt: oxalate) [Example 325, 6-{3-[benzothiazol-2-yl(1-methylpiperidin-4-yloxy)methyl]phenyl}hexylamine]",115
11,"CN1CCC(OC(c2cccc(I)c2)c2nc3ccccc3s2)CC1 (centres unmarked) (as salt: oxalate) [Example 41, 2-[(3-iodophenyl)(1-methylpiperidin-4-yloxy)methyl]benzothiazole]",165 to 170
12,"CN1CCC(OC(c2cccc(OCCN3CCCCC3)c2)c2nc3ccccc3[nH]2)CC1 (centres unmarked) (as salt: oxalate) [Example 356, 2-{(1-methylpiperidin-4-yloxy)[3-(2-piperidin-1-yl-ethoxy)phenyl]methyl}-1H-benzimidazole]",160
13,CCOCCn1c(C(OC2CCN(C)CC2)c2cccc(C#CCCCCN)c2)nc2ccccc21 (centres unmarked) (as salt: oxalate) [Example 500],103
14,"CN1CCC(OC(c2cccc(OCCCCN3CCCCC3)c2)c2nc3ccccc3[nH]2)CC1 (centres unmarked) (as salt: oxalate) [Example 333, 2-{(1-methylpiperidin-4-yloxy)[3-(4-piperidin-1-yl-butoxy)phenyl]methyl}-1H-benzimidazole]",130
15,"Cc1ccc(C(OC2CCN(C)CC2)c2nc3ccccc3s2)cc1 (centres unmarked) (as salt: oxalate) [Example 7, 2-[(1-methylpiperidin-4-yloxy)-p-tolylmethyl]benzothiazole]",177
16,CN1CCC(OC(c2nc3ccccc3[nH]2)c2cc(C#CCCCN)ccc2F)CC1 (centres unmarked) (as salt: oxalate) [Example 442],139
17,"CCCCCOc1cccc(C(NC2CCN(C)CC2)c2nc3ccccc3[nH]2)c1 (centres unmarked) (as salt: oxalate) [Example 95, [(1H-benzimidazol-2-yl)(3-pentyloxyphenyl)methyl](1-methylpiperidin-4-yl)amine]",128
18,"CCCCOc1cccc(C(NC2CCN(C)CC2)c2nc3ccccc3[nH]2)c1 (centres unmarked) (as salt: oxalate) [Example 69, [(1H-benzimidazol-2-yl)(3-butoxyphenyl)methyl](1-methylpiperidin-4-yl)amine]",137
19,"CN1CCC(OC(c2cccc(-c3cccc(F)c3)c2)c2nc3ccccc3[nH]2)CC1 (centres unmarked) (as salt: oxalate) [Example 109, 2-[(3′-fluoro-biphenyl-3-yl)(1-methylpiperidin-4-yloxy)methyl]-1H-benzimidazole]",120
20,"CN1CCC(OC(c2cccc(N3CCC(CO)C3)c2)c2nc3ccccc3s2)CC1 (centres unmarked) (as salt: oxalate) [Example 404, (1-{3-[benzothiazol-2-yl(1-methylpiperidin-4-yloxy)methyl]phenyl}pyrrolidin-3-yl)methanol]",106

# Next, values leading:
row,melting point [°C],Compound
1,206 to 207,"CN1CCC(OC(c2cccc(-c3ccccc3CO)c2)c2nc3ccccc3s2)CC1 (centres unmarked) (as salt: oxalate) [Example 127, {3′-[benzothiazol-2-yl(1-methylpiperidin-4-yloxy)methyl]biphenyl-2-yl}methanol]"
2,147 to 148,"CN1CCC(OC(c2ccc(Cl)cc2)c2nc3ccccc3s2)CC1 (centres unmarked) (as salt: oxalate) [Example 4, 2-[(4-chlorophenyl)(1-methylpiperidin-4-yloxy)methyl]benzothiazole]"
3,70,"CN1CCC(COC(c2cccc(Br)c2)c2nc3cc(F)ccc3[nH]2)C1 (centres unmarked) (as salt: oxalate) [Example 449, 2-[(3-bromophenyl)(1-methylpyrrolidin-3-ylmethoxy)methyl]-5-fluoro-1H-benzimidazole]"
4,50,"CN1CCC(NC(c2cccc(SCc3ccccc3)c2)c2nc3ccccc3s2)CC1 (centres unmarked) (as salt: oxalate) [Example 107, [benzothiazol-2-yl(3-benzylsulfanylphenyl)methyl](1-methylpiperidin-4-yl)amine]"
5,158,"CN1CCC(OC(c2cccc(OCc3ccccn3)c2)c2nc3ccccc3s2)CC1 (centres unmarked) (as salt: oxalate) [Example 283, 2-{(1-methylpiperidin-4-yloxy)[3-(pyridin-2-ylmethoxy)phenyl]methyl}benzothiazole]"
6,174,"Cc1ccc(C(OC2CCN(C)CC2)c2nc3ccccc3s2)s1 (centres unmarked) (as salt: oxalate) [Example 19, 2-[(1-methylpiperidin-4-yloxy)(5-methylthiophen-2-yl)methyl]benzothiazole]"
7,118,"CN1CCC(NC(c2cccc(OCc3ccccc3F)c2)c2nc3ccccc3[nH]2)CC1 (centres unmarked) (as salt: oxalate) [Example 113, {(1H-benzimidazol-2-yl)[3-(2-fluorobenzyloxy)phenyl]methyl}(1-methylpiperidin-4-yl)amine]"
8,68,"CC(C)Oc1cccc(C(OC2CCN(C)CC2)c2nc3ccccc3s2)c1 (centres unmarked) (as salt: oxalate) [Example 55, 2-[(3-isopropoxyphenyl)(1-methylpiperidin-4-yloxy)methyl]benzothiazole]"
9,120,"CN1CCC(NC(c2cccc(OCCCC3(C)OCCO3)c2)c2nc3ccccc3[nH]2)CC1 (centres unmarked) (as salt: oxalate) [Example 174, ((1H-benzimidazol-2-yl)-{3-[3-(2-methyl-[1,3]dioxolan-2-yl)-propoxy]phenyl}methyl)(1-methylpiperidin-4-yl)amine]"
10,132,"Cc1cccc(C(NC2CCN(C)CC2)c2nc3ccccc3[nH]2)c1 (centres unmarked) (as salt: oxalate) [Example 84, [(1H-benzimidazol-2-yl)(m-tolyl)methyl](1-methylpiperidin-4-yl)amine]"
11,101,"CN1CCC(OC(c2cccc(OCC3CCCCC3)c2)c2nc3ccccc3s2)CC1 (centres unmarked) (as salt: oxalate) [Example 285, 2-[(3-Cyclohexylmethoxyphenyl)(1-methylpiperidin-4-yloxy)methyl]benzothiazole]"
12,136,"CN1CCC(OC(c2cccc(OCCNCC(=O)OC(C)(C)C)c2)c2nc3ccccc3s2)CC1 (centres unmarked) (as salt: oxalate) [Example 370, (2-{3-[benzothiazol-2-yl(1-methylpiperidin-4-yloxy)methyl]phenoxy}ethylamino)acetic acid tert-butyl ester]"
13,80,"CN1CCC(OC(c2cccc(SC(C)(C)CCO)c2)c2nc3ccccc3s2)CC1 (centres unmarked) (as salt: oxalate) [Example 242, 3-{3-[benzothiazol-2-yl(1-methylpiperidin-4-yloxy)methyl]phenylsulfanyl}-3-methyl-butan-1-ol]"
14,192,"CN1CCC(OC(c2ccc(F)cc2)c2nc3ccccc3s2)CC1 (centres unmarked) (as salt: oxalate) [Example 3, 2-[(4-fluorophenyl)(1-methylpiperidin-4-yloxy)methyl]benzothiazole]"
15,106,"CN1CCC(OC(c2cccc(N3CCC(O)C3)c2)c2nc3ccccc3s2)CC1 (centres unmarked) (as salt: oxalate) [Example 407, 1-{3-[benzothiazol-2-yl(1-methylpiperidin-4-yloxy)methyl]phenyl}pyrrolidin-3-ol]"
16,101,"CN1CCC(OC(c2cccc(OCCCCCN3CCN(C(=O)OC(C)(C)C)CC3)c2)c2nc3ccccc3[nH]2)CC1 (centres unmarked) (as salt: oxalate) [Example 391, 4-(5-{3-[(1H-benzimidazol-2-yl)(1-methylpiperidin-4-yloxy)methyl]phenoxy}pentyl)piperazine-1-carboxylic acid tert-butyl ester]"
17,127,"Cc1cccc(C(NC2CCN(C)CC2)c2nc3ccccc3s2)c1 (centres unmarked) (as salt: oxalate) [Example 21, [(benzothiazol-2-yl)(m-tolyl)methyl](1-methylpiperidin-4-yl)amine]"
18,88,"CCOCCn1c(C(OC2CCN(C)CC2)c2cccc(I)c2)nc2ccccc21 (centres unmarked) (as salt: oxalate) [Example 497, 1-(2-ethoxyethyl)-2-[(3-iodophenyl)(1-methylpiperidin-4-yloxy)methyl]-1H-benzimidazole]"
